Data as given in patent US11999727B2 (Tango Therapeutics, Inc., priority 2020, dated 2024).

Key:
[1] = system: HAP1 MTAP-deleted cell line; assay: Viability assay, MTAP-deleted cell line; format: cell-based; conditions: Homo sapiens, HAP1, viability assay, MTAP-deleted cell line; read-out: HAP1 MTAP deleted viability
Source text: Table 1 additionally indicates IC50 values in a viability assay for the MTAP-deleted cell line (column 10), indicating the effect of treatment with compound on cell survival.

PRMT5 [2] = molecular target: T1, PRMT5 (Homo sapiens, UniProt O14744); assay: PRMT5 biochemical IC50 assay with MTA as cofactor; conditions: PRMT5, MTA as cofactor; read-out: MTA IC50
T1 construct: purchased Viva (custom protein)

[3] = system: HAP1 MTAP-deleted cell line; assay: SDMA in-cell western assay, HAP1 MTAP-deleted; format: cell-based; conditions: for IC50: Homo sapiens, HAP1, SDMA in-cell western, HAP1 MTAP-deleted, read-out: HAP1 MTAP deleted IC50; for MTAP intact/deleted ratio: IC50 ratio HAP1 MTAP-intact / HAP1 MTAP-deleted, SDMA in-cell western
Method in brief: (§1)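 MTAP-null vs endogenous-MTAP HAP1 isogenic cells; in-cell western SDMA readout; IC50 per line.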

[4] = system: HAP1 MTAP-intact cell line; assay: SDMA in-cell western assay, HAP1 MTAP-intact; format: cell-based; conditions: Homo sapiens, HAP1, SDMA in-cell western, HAP1 MTAP-intact; read-out: MTAP HAP1 intact IC50
Method in brief: as §1

PRMT5 [5] = molecular target: T1, PRMT5; assay: PRMT5 biochemical IC50 assay with no cofactor; conditions: PRMT5, no cofactor; read-out: No Cofactor/rel IC50
Source text: Table 1 indicates IC50 values (μM) against PRMT5 for exemplary compounds in the presence of SAM as cofactor, with no cofactor, and with MTA as cofactor, respectively (columns 4-6). […] Ki values can be calculated from the IC50 values as described in the Examples section. As detailed in the Examples section, for the assay performed in the presence of SAM, IC50=Ki×1.5 (Ki=IC50/1.5).

PRMT5 [6] = molecular target: T1, PRMT5; assay: PRMT5 biochemical IC50 assay with SAM as cofactor; conditions: PRMT5, SAM as cofactor; read-out: SAM IC50

T1 sequence (O14744 whole entry): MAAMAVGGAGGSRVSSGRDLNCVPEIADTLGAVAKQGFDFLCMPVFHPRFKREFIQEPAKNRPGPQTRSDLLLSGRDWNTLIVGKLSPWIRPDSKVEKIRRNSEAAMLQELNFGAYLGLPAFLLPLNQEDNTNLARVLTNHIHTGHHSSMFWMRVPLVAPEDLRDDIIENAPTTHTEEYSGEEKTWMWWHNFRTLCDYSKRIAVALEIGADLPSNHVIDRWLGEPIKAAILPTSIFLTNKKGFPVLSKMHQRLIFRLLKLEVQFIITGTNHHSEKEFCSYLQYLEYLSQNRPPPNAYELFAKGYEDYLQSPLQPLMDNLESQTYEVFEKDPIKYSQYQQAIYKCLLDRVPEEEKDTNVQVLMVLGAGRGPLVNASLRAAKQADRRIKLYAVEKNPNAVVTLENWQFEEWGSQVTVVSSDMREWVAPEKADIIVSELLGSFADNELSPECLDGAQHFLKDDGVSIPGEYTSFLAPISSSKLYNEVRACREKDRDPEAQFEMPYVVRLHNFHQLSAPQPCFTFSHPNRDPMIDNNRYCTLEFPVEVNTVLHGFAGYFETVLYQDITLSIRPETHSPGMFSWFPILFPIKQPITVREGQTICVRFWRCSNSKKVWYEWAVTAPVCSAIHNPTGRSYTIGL
T1 sequence (Q9BQA1 whole entry partner): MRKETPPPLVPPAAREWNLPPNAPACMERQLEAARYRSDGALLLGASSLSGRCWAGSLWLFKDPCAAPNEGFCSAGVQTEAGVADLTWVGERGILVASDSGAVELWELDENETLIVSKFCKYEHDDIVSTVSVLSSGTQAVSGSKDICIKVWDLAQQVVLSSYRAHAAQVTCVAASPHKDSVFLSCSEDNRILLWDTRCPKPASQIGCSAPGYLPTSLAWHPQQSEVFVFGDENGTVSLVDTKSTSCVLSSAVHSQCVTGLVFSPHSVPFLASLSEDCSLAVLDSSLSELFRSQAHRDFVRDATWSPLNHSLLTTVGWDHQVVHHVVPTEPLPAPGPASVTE

IC50 (PRMT5 [2])	IC50 [3]	IC50 [4]	IC50 (PRMT5 [5])	IC50 (PRMT5 [6])	Compound	IC50 [1]	MTAP intact/deleted ratio [3]
< 50 nM	< 100 nM	> 1000 nM	50 to 500 nM	50 to 500 nM	C[C@@H]1CC[C@@H](c2cccc(C3CCC3)c2)N(C(=O)C(=O)Nc2cncc(C(N)=O)c2)C1 (racemic) [Compound 261, rac-5-{2-[(2R,5S)-2-(3-Cyclobutylphenyl)-5-methylpiperidin-1-yl]-2-oxoacetamido}pyridine-3-carboxamide]	1000 to 10000 nM	A (an IC50 ratio greater than or equal to 10 fold)
< 50 nM	100 to 1000 nM	> 1000 nM	50 to 500 nM	50 to 500 nM	C[C@@H]1CC[C@@H](c2ccc(F)c(F)c2)N(C(=O)C(=O)Nc2cncc(C(N)=O)c2)C1 (racemic) [Compound 263, rac-5-{2-[(2R,5S)-2-(3,4-Difluorophenyl)-5-methylpiperidin-1-yl]-2-oxoacetamido}pyridine-3-carboxamide]	1000 to 10000 nM	A (an IC50 ratio greater than or equal to 10 fold)
50 to 500 nM	< 100 nM	> 1000 nM	50 to 500 nM	50 to 500 nM	C[C@@H]1CC[C@@H](c2ccc(OC3CCOC3)cc2)N(C(=O)C(=O)Nc2cncc(C(N)=O)c2)C1 (mixture of isomers) [Compound 264, rac-5-{2-[(2R,5S)-5-Methyl-2-[4-(oxolan-3-yloxy)phenyl]piperidin-1-yl]-2-oxoacetamido}pyridine-3-carboxamide]	1000 to 10000 nM	A (an IC50 ratio greater than or equal to 10 fold)
< 50 nM	100 to 1000 nM	> 1000 nM	50 to 500 nM	50 to 500 nM	C[C@@H]1CC[C@@H](c2cccc(C(F)(F)F)c2)N(C(=O)C(=O)Nc2cncc(C(N)=O)c2)C1 (racemic) [Compound 265, rac-5-{2-[(2R,5S)-5-Methyl-2-[3-(trifluoromethyl)phenyl]piperidin-1-yl]-2-oxoacetamido}pyridine-3-carboxamide]	1000 to 10000 nM	A (an IC50 ratio greater than or equal to 10 fold)
50 to 500 nM	100 to 1000 nM	> 1000 nM	> 500 nM	50 to 500 nM	NC(=O)c1cncc(NC(=O)C(=O)N2C[C@@H](CO)CC[C@@H]2c2ccccc2)c1 (racemic) [Compound 266, 5-(2-(5-(hydroxymethyl)-2-phenylpiperidin-1-yl)-2-oxoacetamido)nicotinamide]	> 10000 nM	A (an IC50 ratio greater than or equal to 10 fold)
< 50 nM	100 to 1000 nM	> 1000 nM	50 to 500 nM	50 to 500 nM	C[C@@H]1CC[C@@H](c2cccc(C(F)F)c2)N(C(=O)C(=O)Nc2cncc(C(N)=O)c2)C1 (racemic) [Compound 268, rac-5-{2-[(2R,5S)-2-[3-(Difluoromethyl)phenyl]-5-methylpiperidin-1-yl]-2-oxoacetamido}pyridine-3-carboxamide]	1000 to 10000 nM	A (an IC50 ratio greater than or equal to 10 fold)
< 50 nM	< 100 nM	> 1000 nM	50 to 500 nM	50 to 500 nM	C[C@@H]1CC[C@@H](c2ccc3c(c2)OCO3)N(C(=O)C(=O)Nc2cncc(C(N)=O)c2)C1 (racemic) [Compound 270, rac-5-{2-[(2R,5S)-2-(1,3-Dioxaindan-5-yl)-5-methylpiperidin-1-yl]-2-oxoacetamido}pyridine-3-carboxamide]	1000 to 10000 nM	A (an IC50 ratio greater than or equal to 10 fold)
< 50 nM	100 to 1000 nM	> 1000 nM	50 to 500 nM	50 to 500 nM	C[C@@H]1CC[C@@H](c2ccc(OC(F)F)cc2)N(C(=O)C(=O)Nc2cncc(C(N)=O)c2)C1 (racemic) [Compound 271, rac-5-{2-[(2R,5S)-2-[4-(Difluoromethoxy)phenyl]-5-methylpiperidin-1-yl]-2-oxoacetamido}pyridine-3-carboxamide]	1000 to 10000 nM	A (an IC50 ratio greater than or equal to 10 fold)
50 to 500 nM	> 1000 nM	> 1000 nM	50 to 500 nM	50 to 500 nM	C[C@@H]1CC[C@@H](c2ccc3nncn3c2)N(C(=O)C(=O)Nc2cncc(C(N)=O)c2)C1 (racemic) [Compound 272, rac-5-{2-[(2R,5S)-5-Methyl-2-{[1,2,4]triazolo[4,3-a]pyridin-6-yl}piperidin-1-yl]-2-oxoacetamido}pyridine-3-carboxamide]	> 10000 nM	C (an IC50 ratio of less than 3 fold)
< 50 nM	100 to 1000 nM	> 1000 nM	50 to 500 nM	50 to 500 nM	C[C@@H]1CC[C@@H](c2ccc(CC3CC3)cc2)N(C(=O)C(=O)Nc2cncc(C(N)=O)c2)C1 (racemic) [Compound 273, rac-5-{2-[(2R,5S)-2-[4-(Cyclopropylmethyl)phenyl]-5-methylpiperidin-1-yl]-2-oxoacetamido}pyridine-3-carboxamide]	1000 to 10000 nM	A (an IC50 ratio greater than or equal to 10 fold)
< 50 nM	100 to 1000 nM	> 1000 nM	50 to 500 nM	50 to 500 nM	C[C@@H]1CC[C@@H](c2ccc(F)nc2)N(C(=O)C(=O)Nc2cncc(C(N)=O)c2)C1 (racemic) [Compound 276, rac-5-{2-[(2R,5S)-2-(6-Fluoropyridin-3-yl)-5-methylpiperidin-1-yl]-2-oxoacetamido}pyridine-3-carboxamide]	> 10000 nM	A (an IC50 ratio greater than or equal to 10 fold)
< 50 nM	100 to 1000 nM	> 1000 nM	50 to 500 nM	50 to 500 nM	C[C@@H]1CC[C@@H](c2ccc3c(c2)CCC3)N(C(=O)C(=O)Nc2cncc(C(N)=O)c2)C1 (racemic) [Compound 277, rac-5-{2-[(2R,5S)-2-(2,3-Dihydro-1H-inden-5-yl)-5-methylpiperidin-1-yl]-2-oxoacetamido}pyridine-3-carboxamide]	1000 to 10000 nM	A (an IC50 ratio greater than or equal to 10 fold)
< 50 nM	100 to 1000 nM	> 1000 nM	50 to 500 nM	50 to 500 nM	C[C@@H]1CC[C@@H](c2cccc(OC(F)(F)F)c2)N(C(=O)C(=O)Nc2cncc(C(N)=O)c2)C1 (racemic) [Compound 279, rac-5-{2-[(2R,5S)-5-Methyl-2-[3-(trifluoromethoxy)phenyl]piperidin-1-yl]-2-oxoacetamido}pyridine-3-carboxamide]	1000 to 10000 nM	A (an IC50 ratio greater than or equal to 10 fold)
< 50 nM	100 to 1000 nM	> 1000 nM	50 to 500 nM	50 to 500 nM	C[C@@H]1CC[C@@H](c2ccc(Cl)c(N)c2)N(C(=O)C(=O)Nc2cncc(C(N)=O)c2)C1 (racemic) [Compound 280, rac-5-{2-[(2R,5S)-2-(3-Amino-4-chlorophenyl)-5-methylpiperidin-1-yl]-2-oxoacetamido}pyridine-3-carboxamide]	1000 to 10000 nM	A (an IC50 ratio greater than or equal to 10 fold)
50 to 500 nM	100 to 1000 nM	> 1000 nM	> 500 nM	> 500 nM	C[C@@H]1CC[C@@H](c2ccc3c(c2)CCO3)N(C(=O)C(=O)Nc2cncc(C(N)=O)c2)C1 (racemic) [Compound 282, rac-5-{2-[(2R,5S)-2-(2,3-Dihydro-1-benzofuran-5-yl)-5-methylpiperidin-1-yl]-2-oxoacetamido}pyridine-3-carboxamide]	> 10000 nM	A (an IC50 ratio greater than or equal to 10 fold)
50 to 500 nM	100 to 1000 nM	> 1000 nM	50 to 500 nM	50 to 500 nM	Cc1cc(NC(=O)C(=O)N2C[C@H](C(N)=O)CC[C@H]2c2ccccc2)cnc1N (racemic) [Compound 315]	> 10000 nM	A (an IC50 ratio greater than or equal to 10 fold)
50 to 500 nM	> 1000 nM	> 1000 nM	> 500 nM	> 500 nM	NC(=O)c1cncc(NC(=O)C(=O)N2C[C@@H](CC(F)(F)F)CC[C@H]2c2ccccc2)c1 (racemic) [Compound 318, 5-[[2-Oxo-2-[(2R,5S)-2-phenyl-5-(2,2,2-trifluoroethyl)-1-piperidyl]acetyl]amino]pyridine-3-carboxamide]	> 10000 nM	C (an IC50 ratio of less than 3 fold)
